Tests used:
human RARγ LBD = target: T1, human RARγ LBD (Homo sapiens, UniProt P13631); experiment: RARγ SRC-2 coactivator recruitment assay (agonist mode); format: biochemical; details: maximum stimulation relative to fitted top of TTNPB standard curve
T1 sequence (P13631 185-419 limits assumed): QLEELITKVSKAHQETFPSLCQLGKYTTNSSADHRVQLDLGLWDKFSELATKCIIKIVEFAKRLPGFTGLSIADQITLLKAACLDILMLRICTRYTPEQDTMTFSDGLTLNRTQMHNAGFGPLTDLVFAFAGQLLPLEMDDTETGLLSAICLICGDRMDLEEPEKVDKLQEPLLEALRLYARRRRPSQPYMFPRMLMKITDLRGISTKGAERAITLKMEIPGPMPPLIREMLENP
T1 sequence (P19793 227-458 partner limits assumed): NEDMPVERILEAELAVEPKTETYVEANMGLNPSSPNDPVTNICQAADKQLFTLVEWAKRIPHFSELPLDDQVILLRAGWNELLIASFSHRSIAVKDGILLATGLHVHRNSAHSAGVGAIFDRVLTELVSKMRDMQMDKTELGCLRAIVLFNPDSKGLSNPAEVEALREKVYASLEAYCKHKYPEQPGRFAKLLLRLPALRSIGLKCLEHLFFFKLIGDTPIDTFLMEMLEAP
Description: The RARγ SRC-2 Coactivator recruitment assay utilizes the ligand binding domain (LBD) of RARγ with its binding partner RXRα to determine the ability of a compound to enhance the recruitment of the co-activator SRC-2 to the receptor complex. Enhanced recruitment of SRC2 is known to be reflective of an agonist confirmation of the RARγ receptor. The RARγ LBD and SRC2 peptides are covalently linked to AlphaScreen® beads such that enhanced protein-protein interactions can be assessed by energy transfer. Coactivator recruitment assays are performed using AlphaScreen® technology (Perkin Elmer USA) using a 6X-Histidine tagged human RARγ LBD and GST tagged hSRC-2 protein. Unlabelled RXRα LBD is added as a silent heterodimer partner. Nickel chelated donor beads are used to bind RARγ LBD and anti-GST acceptor beads are used to bind SRC-2. Serially diluted test compound is added in concentrations ranging from 10 μM to 500 pM to 20 nM human RARγ receptor, 25 nM RXRα LBD, and 5 nM SRC-2 protein in a buffer containing 25 mM HEPES (pH 7.5), 100 mM NaCl, 0.1% Bovine Serum Albumin (fraction V), and 2 mM DTT containing 16.67 μg/ml of nickel chelated donor beads and 16.67 μg/ml of anti GST acceptor beads in a final volume of 15 μl per well in a white 384 shallow well proxiplate. The RAR agonist, TTNPB, is used as a standard on each plate and is added in concentrations ranging from 100 nM to 5 pM. After incubating for 12 hours at room temperature, read the plate on a Perkin Elmer Envision using standard AlphaScreen® parameters for excitation and fluorescence. Use the data to calculate an EC50 for compounds after fitting the dose-response curves to a 4-parameter logistic fit. Calculate the percent stimulation using the fitted top of the TTNPB standard curve as a comparator.

MIA model of pain = experiment: Monosodium iodoacetate (MIA) model of pain; format: in vivo, rat; details: rats, dose of 0.1 mg/kg, dosed once on day 9 post MIA, measured 2 h post dosing
Description: The injection of monoiodoacetic acid (MIA) into the knee joint of rats produces an acute inflammatory insult, which then develops into chronic degeneration of the joint tissues in the injected joint. The pain resulting from the joint injury can be measured via differential weight bearing of the hind legs using an incapacitance tester. […] Efficacy is routinely measured by the ability of a compound to partially normalize weight distribution. The maximal efficacy that can be achieved in the standard MIA is dependent on the mechanism being studied; however, for many mechanisms the maximal efficacy achieved results in a 25%-50% reduction in the weight bearing differential.
Use Male Lewis rats approximately 150-170 g and between 6-8 weeks of age. Let the animals acclimate to the environment for at least 72 h. […]
Incapacitance Tester Readings—Incapacitance Testers (Columbus Instruments International, Columbus, Ohio) for weight bearing measurements. […] A total of three one second readings are taken to reflect the amount of pressure exerted on both the left and right hind paw while the rat is positioned in the chamber. The force exerted by each hind paw is measured in grams and calculated as the left hind paw weight distribution-right hind paw weight distribution. Thus, the final paw weight distribution for each animal is an average of the three one second readings. […]

| SMILES | % Stimulation (human RARγ LBD) [%] | inhibition of pain (hind paw weight bearing differential) compared to vehicle (MIA model of pain) |
| --- | --- | --- |
| CN1CCN(C(=O)c2ccc(-n3nc(-c4ccc(C(=O)O)cc4)cc3-c3cc(C(C)(C)C)cc(C(C)(C)C)c3)cc2)CC1 [Example 1, 4-[5-(3,5-Di-tert-butylphenyl)-1-[4-(4-methylpiperazine-1-carbonyl)phenyl]pyrazol-3-yl]benzoic Acid] | 0.2 | significantly inhibits pain |
| CC(C)(C)c1cc(-c2cc(-c3ccc(C(=O)O)cc3)nn2-c2ccc(C(=O)N3CCOCC3)cc2)cc(C(C)(C)C)n1 [Example 8, 4-[5-(2,6-Di-tert-butyl-4-pyridyl)-1-[4-(morpholine-4-carbonyl)phenyl]pyrazol-3-yl]benzoic acid] | 0.6 | – |
| CC(C)Sc1cc(-c2cc(-c3ccc(C(=O)O)cc3)nn2-c2ccc(C(=O)N(C)C)cc2)cc(C(C)(C)C)c1 [Example 12, 4-[5-(3-tert-Butyl-5-isopropylsulfanyl-phenyl)-1-[4-(dimethylcarbamoyl)phenyl]pyrazol-3-yl]benzoic Acid] | 8.4 | – |
| CC(C)(C)c1cc(-c2cc(-c3ccc(C(=O)O)cc3)nn2-c2ccc(S(C)(=O)=O)cc2)cc(C(C)(C)C)c1 [Example 19, 4-[5-(3,5-Di-tert-butylphenyl)-1-(4-methylsulfonylphenyl)pyrazol-3-yl]benzoic Acid] | −3 | – |

— patent publication US20140275049A1, “SUBSTITUTED PYRAZOLE ANALOGS As RAR ANTAGONISTS” (Eli Lilly and Company, priority 2011, published 2014)
